Values after ≈ are worked out from the molar mass of the structure shown. Values joined by “and” are separate entries in the source; they are usually repeats but may differ in a detail not shown here. Equal entries are not always repeated. Where two headings read alike, the source gives them in different places. Values belong to the compound of their own block, whether it stands above or below them.
Key:
[1] = room temperature; The Merck Index, 1996; cited from earlier work
physchem = conditions: 25 °C, aqueous with cosolvent or surfactant or cyclodextrin, thermodynamic from solid
in vitro = conditions: human, Caco-2
From the text: Human epithelial colorectal adenocarcinoma cell line (Caco-2) was obtained from the American Type Culture Collection (ATCC), and cultured according to directions. Caco-2 cells grown in tissue culture flasks were trypsinized, suspended in medium, and the suspensions were applied to wells of a collagen-coated BioCoat Cell Environment in 24-well format (BD Biosciences) at 24,500 cells per well. The cells were allowed to grow and differentiate for three weeks, feeding at 2-day intervals. […] For Apical to Basolateral (A->B) permeability, the test agent (1 mg/mL)+probe substrate were added to the apical (A) side, test agent was added to the Basolateral (B) side, and amount of permeation was determined on the B side. For Basolateral to Apical (B>A) permeability, the test agent+probe substrate were added to the B side, test agent was added to the A side, and the amount of permeation of probe substrate was determined on the A side. Buffer alone, without test agent, was used as a negative control. […] Dosing solutions were prepared by dissolving the test agent in Transport buffer, then adding Lucifer yellow to a portion as indicated. CaCo-2 cells were incubated with these buffers for 2 h., and the receiver side buffer is removed for analysis by LC/MS/MS.
To verify the CaCo-2 cell monolayers were properly formed, aliquots of the cell buffers were analyzed by fluorescence to determine the transport of the impermeable dye Lucifer Yellow.
Where dQ/dt is the rate of permeation, C0 is the initial concentration of test agent, and A is the area of the monolayer.
From bidirectional permeability studies, the efflux ration (RE) is also calculated:
The P-gp inhibition data were calculated from the permeability results for the probe substrate as indicated. Ranitidine (low permeability) and warfarin (high permeability) are included as controls to ensure the proper performance of the test system.

[2] = for Curcumin content of reconstituted solution: 100 mg in 10 mL water
Description: The water solutions containing the complexes of the water-insoluble compound and the solubilizer were dried to remove the water and to form a powder. […] Any method of water removal could be used, including freeze-drying, spray-drying, or oven drying. […] The amount of added water can be adjusted to achieve the desired concentration of the compound.
The 30% and 40% curcumin-rubusoside water solution (10 mL) were freeze-dried to powder. […] Part of this powder (100 mg) was re-constituted in 10 mL water. […] (FIG. 13) Similarly, the 30% curcumin-rebusoside solution was freeze-dried to powder, and 100 mg powder reconstituted with 10 mL water.
The powder was reconstituted using 1 ml, 0.5 ml, 0.25 ml or 0.1 ml water, followed by 60 min sonication and a brief vortex. […] Paclitaxel concentrations were determined using a standard paclitaxel calibration curve with paclitaxel standard in methanol. […] (FIG. 15).

[3] = test system: human pancreatic cancer cells (PANC-1); assay: Growth inhibition of PANC-1 cells by re-constituted curcumin water solution; assay type: cell-based
Description: The pH-adjusted water solution was then co-cultured with human pancreatic cancer cells (PANC-1) for 72 hours in a standard cell culture medium. […] All culture materials were purchased from Invitrogen Corporation (Carlsbad, Calif.). […] (FIG. 14).

[4] = Concentration of curcumin dissolved in rebaudioside A water solution, HPLC; assay type: physicochemical; conditions: 5% w/v rebaudioside A
From the text: A new method (the “Sonication—autoclave method”) was used to solublize most of the compounds, a method different from that reported in International Patent Application No. PCT/US2009/040324 (the “Standard Shake Flask method”). The main difference was the use of higher temperatures and elevated atmospheric pressures. The steps of the new enhanced process are as follows. A water-insoluble compound was weighed into multiple flasks, divided into two groups—a control group and an experimental group. Each experimental flask received a known amount of the solubilizing agent, e.g. rubusoside, being tested. The control flasks contained only the water-insoluble compound. The same volume, 10 mL, unless otherwise indicated, of deionized and distilled water was added to each flask. Alternatively, water solutions containing a known percentage of solubilizer (e.g., 5% or 10% w/v) were prepared. The solubilizer-water solutions were added directly to the experimental flasks containing the water-insoluble compound. In either case, the flasks were then vortexed briefly and sonicated for 60 min at 50° C. Sonication is a process of applying sound (usually ultrasound) energy to agitate particles in a sample. Using this energy, inter-molecular interactions are facilitated. After sonication, the solution was then subjected to heat and pressure. […] The supernatant solution was passed through a 0.45 μm filter and analyzed for the concentration of the water-insoluble compound or solubilizer by HPLC or LC/MS, as described below.
To test if the enhanced process also applies to another solubilizing agent, rebuadioside A was used. […] The water solutions were filtered by 0.45 μM filters and analyzed on HPLC. Quantification was done by comparing to a standard solution of a known amount of curcumin in methanol. […] Curcumin concentration was determined using a standard curcumin solution of 196.8 μg/mL. […]

[5] = Stability of curcumin-rubusoside water solutions (dilution with water, storage, pH); assay type: physicochemical
Description: This is important because the concentrated curcumin solution may be diluted in a biological system, e.g., in the stomach fluid.
Various concentrations of the solubilizer rubusoside were prepared in water: 0%, 1%, 2.5%, 5%, 10%, 20%, 30%, and 40% w/v. Curcumin (100 mg) was weighed and added into separate flasks, and an equal amount (10 ml) of a rubusoside solution was added to each flask. The prepared water solutions were vortexed briefly and then sonicated for 60 min at temperature of 50° C. These water solutions were subjected to a heat and pressure treatment composed of 121° C. and 1.1 to 1.2 atm for 60 min, and then placed in an incubator set at 25° C. for at least 24 hr. The solutions were then centrifuged at 4000 rpm for 10 min. The supernatant solution was passed through a 0.45 μm filter and analyzed for the concentration of either the water-insoluble compound or rubusoside by HPLC or LC/MS, as described above in Example 2. Quantification was done by comparing to a standard solution of a known amount in methanol. In the presence of 0%, 1%, 2.5%, 5%, 10%, 20%, 30%, and 40% w/v of rubusoside, the water solutions contained 0, 28, 267, 762, 1330, 2914, 4449, and 6004 μg/mL curcumin, respectively. […] When adjusted to about pH 7.0 by the addition of 1× phosphate buffered saline (PBS) powder, the solutions remained stable for at least 48 hours. Thus the reconstituted solution with saline would be sufficiently stable at pH 7.0 for use in a clinic setting.

[6] = test system: human pancreatic cancer cells (PANC-1); conditions: literature value; read-out: IC50 for Panc-1 reported by Holcomb et al.; cited from earlier work
P-gp = molecular target: T1, P-gp (Homo sapiens, UniProt P08183); assay: P-gp inhibition in Caco-2 assay with digoxin probe substrate; assay type: in vitro ADME; conditions: Caco-2 cell monolayers, probe digoxin 5 µM, test conc 1 mg/mL (1.558 mM), 5 μM digoxin
T1 construct: endogenous in cells; host or cells: Caco-2 (ATCC), differentiated for three weeks on collagen-coated inserts
T1 sequence (P08183 whole entry): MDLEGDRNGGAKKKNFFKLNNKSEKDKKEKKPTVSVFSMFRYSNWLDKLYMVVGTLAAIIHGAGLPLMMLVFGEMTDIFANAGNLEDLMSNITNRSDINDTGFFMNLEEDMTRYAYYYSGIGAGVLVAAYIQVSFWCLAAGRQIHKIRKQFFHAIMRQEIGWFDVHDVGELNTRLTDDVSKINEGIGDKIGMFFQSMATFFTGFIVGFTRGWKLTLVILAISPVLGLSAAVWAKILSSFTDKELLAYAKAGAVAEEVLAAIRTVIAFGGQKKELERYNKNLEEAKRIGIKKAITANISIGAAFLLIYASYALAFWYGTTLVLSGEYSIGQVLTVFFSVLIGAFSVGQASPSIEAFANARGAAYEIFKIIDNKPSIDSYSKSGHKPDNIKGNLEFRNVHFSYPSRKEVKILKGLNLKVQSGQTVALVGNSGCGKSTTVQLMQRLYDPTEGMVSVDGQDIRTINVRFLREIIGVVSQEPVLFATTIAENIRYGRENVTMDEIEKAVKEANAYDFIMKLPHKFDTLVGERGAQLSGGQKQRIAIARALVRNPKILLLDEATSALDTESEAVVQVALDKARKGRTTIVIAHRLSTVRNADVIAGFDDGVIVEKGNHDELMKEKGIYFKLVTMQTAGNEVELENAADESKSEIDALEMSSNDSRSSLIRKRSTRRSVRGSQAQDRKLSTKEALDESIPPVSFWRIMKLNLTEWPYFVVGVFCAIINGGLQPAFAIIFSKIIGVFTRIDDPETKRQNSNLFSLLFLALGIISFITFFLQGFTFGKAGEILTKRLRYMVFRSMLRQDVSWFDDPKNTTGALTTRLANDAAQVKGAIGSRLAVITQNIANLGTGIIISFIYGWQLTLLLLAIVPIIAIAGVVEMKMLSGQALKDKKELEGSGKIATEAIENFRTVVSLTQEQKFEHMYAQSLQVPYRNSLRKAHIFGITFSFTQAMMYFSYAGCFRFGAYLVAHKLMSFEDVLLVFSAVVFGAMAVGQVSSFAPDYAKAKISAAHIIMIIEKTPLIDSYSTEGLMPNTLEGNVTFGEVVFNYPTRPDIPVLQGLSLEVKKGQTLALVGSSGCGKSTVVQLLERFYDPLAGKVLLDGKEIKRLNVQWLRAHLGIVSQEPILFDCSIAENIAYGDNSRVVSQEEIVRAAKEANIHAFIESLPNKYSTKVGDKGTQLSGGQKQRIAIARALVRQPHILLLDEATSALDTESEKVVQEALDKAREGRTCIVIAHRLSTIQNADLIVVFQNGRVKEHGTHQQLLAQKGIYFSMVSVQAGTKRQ

[7] = Solubility in water without solubilizer; assay type: physicochemical

SMILES: O=C(O)c1cc(O)c(O)c(O)c1 [Gallic acid]
Solubility in water [1]: about 11 mg/ml

SMILES: C=C1CC[C@H](O)C/C1=C/C=C1\CCC[C@]2(C)[C@@H]([C@H](C)CCCC(C)C)CC[C@@H]12 [vitamin D3, cholecalciferol]
solubility (physchem): 4.5 mg/mL (≈ 11.7 mM)
Concentration in re-composed single water solution (mixed vitamins A, D, E, K in 10% rubusoside): 4.7 µg/mL

SMILES: C[C@H]1O[C@@H](O[C@H]2[C@@H](O)C[C@H](O[C@H]3[C@@H](O)C[C@H](O[C@H]4CC[C@@]5(C)[C@H](CC[C@@H]6[C@@H]5C[C@@H](O)[C@]5(C)[C@@H](C7=CC(=O)OC7)CC[C@]65O)C4)O[C@@H]3C)O[C@@H]2C)C[C@H](O)[C@@H]1O [Digoxin, digoxin]
Papp A→B at 2 h, 5 μM (in vitro): 1.4 ×10⁻⁶ cm/s
Papp B→A at 2 h, 5 μM (in vitro): 18.7 ×10⁻⁶ cm/s
efflux ratio at 2 h, 5 μM (in vitro): 13.7

SMILES: CC[C@@]1(O)C(=O)OCc2c1cc1n(c2=O)Cc2cc3ccccc3nc2-1 [camptothecin]
Fold increase, enhanced vs standard process (10% w/v rubusoside): more than 3 fold
Concentration in water solution (10% w/v rubusoside, enhanced process (Sonication-Autoclave)): 247 µg/mL
Concentration in water solution (10% w/v rubusoside, standard process (Shake-flask)): 80 µg/mL

More lines, main results first:

Papp A→B at 2 h, 10 μM (in vitro): 1.7 ×10⁻⁶ cm/s
SMILES: CNC(=C[N+](=O)[O-])NCCSCc1ccc(CN(C)C)o1 [Ranitidine]

Reconstitution of dried powder [2]: successfully reconstituted
SMILES: CC(=O)[C@H]1CC[C@H]2[C@@H]3CCC4=CC(=O)CC[C@]4(C)[C@H]3CC[C@]12C [progesterone]

IC50 ([3]; Homo sapiens, PANC-1, re-constituted curcumin-rubusoside solution, pH 7.2, 72 hours): ~5.5 µg/mL and ~14.9 µM
Fold increase, enhanced vs standard process [4]: ~2 fold
Curcumin in water solution ([4]; enhanced process): 302 µg/mL
Curcumin in water solution ([4]; standard process): 156 µg/mL
Reconstitution of dried powder [2]: successfully reconstituted
Curcumin content of reconstituted solution ([2]; powder from 30% rubusoside solution): 1.87 % w/w
Curcumin content of reconstituted solution ([2]; powder from 40% rubusoside solution): 2.03 % w/w
Curcumin in water solution ([5]; Stock, 40.0% w/v rubusoside): 6004 µg/mL
Curcumin in water solution ([5]; stock diluted 1:1 with water, 20.0% rubusoside): 2985 µg/mL
Curcumin in water solution ([5]; stock diluted 1:3 with water, 10.0% rubusoside): 1489 µg/mL
Curcumin in water solution ([5]; stock diluted 1:7 with water, 5.0% rubusoside): 742 µg/mL
Curcumin in water solution ([5]; stock diluted 1:15 with water, […] rubusoside): 358 µg/mL
Curcumin in water solution ([5]; stock diluted 1:39 with water, 1.0% rubusoside): 135 µg/mL
Curcumin concentration (24 h): 0.34 mg/mL
SMILES: COc1cc(/C=C/C(=O)CC(=O)/C=C/c2ccc(O)c(OC)c2)ccc1O [curcumin]
Growth inhibition ([3]; 6.25 μg/mL curcumin, 72 hours): strong inhibition
Curcumin concentration giving maximum growth inhibition ([3]; 72 hours): ≥ 12.5 µg/mL
Growth inhibition ([3]; curcumin below 3.13 μg/mL, 72 hours): no inhibitory effect
IC50 [6]: 17 µM

inhibition at 2 h, 1 mg/mL (P-gp): 59%
solubility ([7]; 25° C.): ~400 mg/mL (≈ 622 mM)
solubility ([7]; 37° C.): ~800 mg/mL (≈ 1240 mM)
SMILES: C=C1C[C@@]23CC[C@H]4[C@@](C)(CCC[C@@]4(C)C(=O)O[C@@H]4O[C@H](CO)[C@@H](O)[C@H](O)[C@H]4O)[C@@H]2CC[C@]1(O[C@@H]1O[C@H](CO)[C@@H](O)[C@H](O)[C@H]1O)C3 [Rubusoside, b-D-glucosyl ester of 13-O-b-D-glucosyl-steviol]

Reconstitution of dried powder [2]: successfully reconstituted
SMILES: Oc1ccc(C=Cc2cc(O)cc(O)c2)cc1 [resveratrol]

Papp A→B at 2 h, 10 μM (in vitro): 33.5 ×10⁻⁶ cm/s
SMILES: CC(=O)CC(c1ccccc1)c1c(O)c2ccccc2oc1=O (stereo not shown) [Warfarin, warfarin]
